# According to patent US6369079B1 (Sepracor, Inc., priority 1998, dated 2002):
# Key:
# [1] = target: T1, 5-HT3 receptor subtypes derived from N1E-115 cells (Mus musculus, UniProt P23979); assay: 5-HT3 receptor radioligand binding (Cerep); details: IC50 for binding to 5-HT3 sites, inhibition of specific radioligand binding
# T1 construct: host or cells: N1E-115 cells
# T1 sequence (P23979 24-489): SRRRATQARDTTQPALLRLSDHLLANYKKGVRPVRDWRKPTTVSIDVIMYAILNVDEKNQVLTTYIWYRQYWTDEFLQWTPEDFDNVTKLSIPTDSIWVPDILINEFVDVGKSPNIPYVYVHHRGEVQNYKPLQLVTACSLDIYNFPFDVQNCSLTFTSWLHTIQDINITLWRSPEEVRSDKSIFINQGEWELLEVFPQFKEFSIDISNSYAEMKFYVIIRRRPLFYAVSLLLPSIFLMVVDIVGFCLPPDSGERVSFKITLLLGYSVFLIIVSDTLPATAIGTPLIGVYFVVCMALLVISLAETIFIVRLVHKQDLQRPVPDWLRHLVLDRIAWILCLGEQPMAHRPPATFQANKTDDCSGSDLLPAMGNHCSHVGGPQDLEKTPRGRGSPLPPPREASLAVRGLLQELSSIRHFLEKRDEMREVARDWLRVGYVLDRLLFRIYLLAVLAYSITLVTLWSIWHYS
# Method: Following incubation with the appropriate ligands, the preparations are rapidly filtered under vacuum through GF/B glass fiber filters and washed with ice-cold buffer using a Brandel or Packard cell harvester.
# (§1) Specific radioligand binding to the receptor is defined as the difference between total binding and nonspecific binding determined in the presence of an excess of unlabeled ligand. Results are expressed as a percent inhibition of specific binding obtained in the presence of the compounds.
# [2] = target: T2, 5-HT4 receptor subtypes derived from guinea-pig striata (Cavia porcellus, UniProt O70528); assay: 5-HT4 receptor radioligand binding (Cerep); details: IC50 for binding to 5-HT4 sites, inhibition of specific radioligand binding
# T2 construct: tissue Cerep, Celle l'Evescault, France; host or cells: guinea-pig striata
# T2 sequence (O70528 whole entry): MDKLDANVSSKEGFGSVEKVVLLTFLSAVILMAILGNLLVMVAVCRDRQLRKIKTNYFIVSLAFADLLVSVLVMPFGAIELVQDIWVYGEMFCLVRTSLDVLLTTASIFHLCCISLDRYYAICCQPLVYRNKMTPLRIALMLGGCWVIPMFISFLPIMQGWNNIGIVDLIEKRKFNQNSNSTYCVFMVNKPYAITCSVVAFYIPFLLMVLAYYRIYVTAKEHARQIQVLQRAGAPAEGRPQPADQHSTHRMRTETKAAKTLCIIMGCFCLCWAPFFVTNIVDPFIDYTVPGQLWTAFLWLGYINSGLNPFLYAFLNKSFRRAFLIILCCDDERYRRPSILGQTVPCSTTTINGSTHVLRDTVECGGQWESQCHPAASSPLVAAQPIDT
# Method: Following incubation with the appropriate ligands, the preparations are raidly filtered under vacuum through GF/B glass fiber filters and washed with ice-cold buffer using a Brandel or Packard cell harvester.
# as §1
# [3] = target: T3, cloned human serotonin 5-HT1A receptor (Homo sapiens, UniProt P08908); assay: R-SAT 5-HT1A receptor activity (agonist/antagonist); type: cell-based; details: antagonist activity against 2 μM 5-HT, NIH 3T3 cells, read-out: Calculated IC50 at 5-HT1A receptor
# T3 construct: host or cells: NIH 3T3 cells
# T3 sequence (P08908 1-422): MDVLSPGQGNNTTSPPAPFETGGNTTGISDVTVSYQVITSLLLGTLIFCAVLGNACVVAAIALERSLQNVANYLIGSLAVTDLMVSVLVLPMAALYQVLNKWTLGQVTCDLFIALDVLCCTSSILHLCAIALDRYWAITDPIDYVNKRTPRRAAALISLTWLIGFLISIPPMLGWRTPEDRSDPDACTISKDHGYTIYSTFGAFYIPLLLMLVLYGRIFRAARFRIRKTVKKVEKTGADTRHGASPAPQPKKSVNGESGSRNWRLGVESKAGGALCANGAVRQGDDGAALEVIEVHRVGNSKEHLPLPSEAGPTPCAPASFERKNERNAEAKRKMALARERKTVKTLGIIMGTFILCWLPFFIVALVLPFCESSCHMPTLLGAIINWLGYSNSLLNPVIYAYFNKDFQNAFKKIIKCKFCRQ
# Method: The assay involves co-expression of a marker enzyme, β-galactosidase, with the serotonin receptor of interest. Ligands stimulate proliferation of cells that express the receptor and, therefore, the marker. Ligand-induced effects can be determined by assay of the marker.
# NIH 3T3 cells are incubated, plated, and then transfected using human 5-HT1A serotonin receptors, pSV-β-galactosidase, and salmon sperm DNA. The medium is changed one day later, and after 2 days, aliquots of the trypsinized cells are placed in wells of a 96 well plate. After five days in culture in the presence of the ligands, the levels of β-galactosidase are measured. The cells are then rinsed and incubated with the substrate, […] β-D-galactopyranoside.
# Data from antagonist inhibition of the compounds are fit to the equation:
# Response Max Response +(Min Response)/1+(Ligand Conc/[…])
# [4] = cited from earlier work
# [5] = co-administration with ketoconazole; cited from earlier work
IC50 [1] [nM],IC50 [2] [nM],IC50 [3] [nM],SMILES,Absorption after oral administration ([4]; humans),"Fraction of dose metabolized ([4]; humans, mainly oxidative N-dealkylation or aromatic hydroxylation)","Bioavailability ([4]; oral administration to humans, rapid first-pass metabolism in the liver)",Increase of steady-state plasma levels [5] [fold]
8.2,686,7480,"COc1cc(N)c(Cl)cc1C(=O)NC1CCNCC1OC (racemic) [(±) Norcisapride, 4-amino-5-chloro-N-(3-methoxy-4-piperidinyl)-2-methoxybenzamide]",,,,
,,,"COc1cc(N)c(Cl)cc1C(=O)NC1CCN(CCCOc2ccc(F)cc2)CC1OC (racemic) [(±) Cisapride, cis-4-amino-5-chloro-N-[1-[3-(4-fluorophenoxy)propyl]-3-methoxy-4-piperidinyl]-2-methoxybenamide]",almost completely absorbed,More than 90%,40-50%,8
30.4,1350,1300,"COc1cc(N)c(Cl)cc1C(=O)NC1CCNCC1OC (single isomer, unassigned; (-)) [(−) Norcisapride, 4-amino-5-chloro-N-(3-methoxy-4-piperidinyl)-2-methoxybenzamide]",,,,
4.5,331,5.4,"COc1cc(N)c(Cl)cc1C(=O)NC1CCNCC1OC (single isomer, unassigned; (+)) [(+) Norcisapride, 4-amino-5-chloro-N-(3-methoxy-4-piperidinyl)-2-methoxybenzamide]",,,,
